This note sets out measurements from patent US20250195536A1, “BICYCLOOCTANE KRAS INHIBITORS” (Incyte Corporation, priority 2023, published 2025).

The term Papp A→B denotes the apparent permeability from the apical to the basolateral side of a cell layer. A low value points to slow passage.

The target in data set [1] is KRAS G12D (Homo sapiens, UniProt P01116, G12D). The data set can be described thus: GDP-GTP exchange assay (KRAS G12D).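 Also: one dagger IC50 up to 100 nM and two daggers above 100 nM up to 1 μM.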 The note with it: bodipy-GDP/GppNHp exchange with SOS1; 4 h pre-incubation, 2 h reaction. It is filed as biochemical. In a few lines: (§1)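 IC50 came from a four-parameter fit of fluorescence loss (485/520 nm) as SOS1 (150 nM) swapped bodipy-GDP for GppNHp (500 μM) on 2.5 nM KRAS, final concentrations. Compounds were pre-incubated 4 h at r.t. (pH 7.5 Hepes, 10 mM MgCl2); exchange ran 2 h (G12D) or 3 h (G12V).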
Sequence of KRAS G12D (P01116 1-188 isoform P01116-2 G12D): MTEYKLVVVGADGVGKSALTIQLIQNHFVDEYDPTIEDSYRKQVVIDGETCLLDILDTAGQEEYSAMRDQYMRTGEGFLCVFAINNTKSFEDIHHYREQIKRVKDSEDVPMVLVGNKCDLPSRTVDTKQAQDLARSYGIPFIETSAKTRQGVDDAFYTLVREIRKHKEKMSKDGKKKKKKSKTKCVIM

Data set [2] has as its target KRAS G12V (Homo sapiens, UniProt P01116, G12V). The data set can be described thus: GDP-GTP exchange assay (KRAS G12V).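 Also: one dagger IC50 up to 100 nM and two daggers above 100 nM up to 1 μM.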 It is filed as biochemical. The note with it: bodipy-GDP/GppNHp exchange with SOS1; 3 h incubation after GppNHp-SOS1. The method, boiled down: as §1
Data set [3] is described as follows: Caco2 assay (permeability, Papp A-B). It is filed as in vitro ADME. The settings on record: human, Caco-2, absorptive direction (A-B), 50 μM test compound, 4% BSA in receiver. The method, boiled down:
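Absorptive (A-B) Papp: 50 μM test compound in HBSS added to apical side of 22-25-day Caco-2 monolayers (TEER 300 Ω·cm^2), receiver buffer containing 4% BSA. After 120 min at 37 °C, 5% CO2, both sides analysed by LCMS; Papp calculated from flux rate normalized to area and donor amount.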
On the technique in general: Caco-2 monolayers are a common model of the intestinal barrier.

Sequence of KRAS G12V (P01116 1-188 isoform P01116-2 G12V): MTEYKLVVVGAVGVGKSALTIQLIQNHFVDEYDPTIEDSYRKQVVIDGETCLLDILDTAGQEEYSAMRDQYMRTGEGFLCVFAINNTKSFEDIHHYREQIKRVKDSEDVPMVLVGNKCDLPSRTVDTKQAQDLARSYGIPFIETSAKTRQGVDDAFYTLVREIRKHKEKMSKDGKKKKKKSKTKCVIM

Turning to `Cc1nc2c(F)c(-c3cccc(Cl)c3Cl)c(CCC#N)cc2c2c1cc([C@H]1[C@H]3C[C@H](CN(S(=O)(=O)N4CCOCC4)C3)N1C(=O)C1CC1)n2[C@H]1[C@H]2CN[C@@H]1C2` (atropisomer, axis not shown; (Ra)) [Example 111, 3-((Ra)-1-((1R,4R,5S)-2-Azabicyclo[2.1.1]hexan-5-yl)-2-((1 S,5R,7R)-6-(cyclopropanecarbonyl)-3-(morpholinosulfonyl)-3,6-diazabicyclo[3.2.1]octan-7-yl)-7-(2,3-dichlorophenyl)-6-fluoro-4-methyl-1H-pyrrolo[3,2-c]quinolin-8-yl)propanenitrile], the “G12D_exchange (KRAS_G12D exchange assay IC50)” value (shortened to “G12D_exchange”) in data set [1] was “††”. For the same compound, the “G12V_exchange (KRAS_G12V exchange assay IC50)” value (“G12V_exchange” for short) in data set [2] is “†”. In data set [3], this compound had a Papp A→B at 120 min, 50 μM not above 0.5 ×10⁻⁶ cm/s.
Turning to `Cc1nc2c(F)c(-c3cccc(Cl)c3Cl)c(CCC#N)cc2c2c1cc(C1C3CC(CN(C)C3=O)N1C(=O)C1CC1)n2C1C2CNC1C2` (atropisomer, axis not shown; (Ra)) [Example 112, 3-((Ra)-1-((1R,4R,5S)-2-Azabicyclo[2.1.1]hexan-5-yl)-2-((1R,5R,7R)-6-(cyclopropanecarbonyl)-3-methyl-2-oxo-3,6-diazabicyclo[3.2.1]octan-7-yl)-7-(2,3-dichlorophenyl)-6-fluoro-4-methyl-1H-pyrrolo[3,2-c]quinolin-8-yl)propanenitrile], the “G12D_exchange” value in data set [1] is “††”. In data set [2], the “G12V_exchange” value is recorded as “†”. Further, the Papp A→B at 120 min, 50 μM in data set [3] is not above 0.5 ×10⁻⁶ cm/s.
Consider `Cc1nc2c(F)c(-c3cccc(Cl)c3Cl)c(CCC#N)cc2c2c1cc(C1C3CC(CN(C4CCCCC4)C3=O)N1C(=O)C1CC1)n2C1C2CNC1C2` (atropisomer, axis not shown; (Ra)) [Example 113, 3-((Ra)-1-((1R,4R,5S)-2-Azabicyclo[2.1.1]hexan-5-yl)-2-((1R,5R,7R)-3-cyclohexyl-6-(cyclopropanecarbonyl)-2-oxo-3,6-diazabicyclo[3.2.1]octan-7-yl)-7-(2,3-dichlorophenyl)-6-fluoro-4-methyl-1H-pyrrolo[3,2-c]quinolin-8-yl)propanenitrile], for which the “G12D_exchange” value in data set [1] is given as “†††”. In data set [2], the “G12V_exchange” value is reported as “†”. This compound also had a Papp A→B at 120 min, 50 μM in data set [3] not above 0.5 ×10⁻⁶ cm/s.
Consider `Cc1nc2c(F)c(-c3cccc(Cl)c3Cl)c(CCC#N)cc2c2c1cc([C@H]1[C@@H]3COC[C@@H](C3)N1C(=O)C1CC1)n2[C@H]1[C@H]2CN[C@@H]1C2` (atropisomer, axis not shown; (Ra)) [Example 115, 3-((Ra)-1-((1R,4R,5S)-2-Azabicyclo[2.1.1]hexan-5-yl)-2-((1R,5R,7R)-6-(cyclopropanecarbonyl)-3-oxa-6-azabicyclo[3.2.1]octan-7-yl)-7-(2,3-dichlorophenyl)-6-fluoro-4-methyl-1H-pyrrolo[3,2-c]quinolin-8-yl)propanenitrile], for which the “G12D_exchange” value in data set [1] is recorded as “†”. For the same compound, the “G12V_exchange” value in data set [2] was “†”. In data set [3], this compound came in with an apical-to-basolateral permeability (Papp A→B) at 120 min, 50 μM not above 0.5 ×10⁻⁶ cm/s.
With `Cc1nc2c(F)c(-c3cccc(Cl)c3Cl)c(CCC#N)cc2c2c1cc([C@H]1[C@@H]3COC(=O)[C@@H](C3)N1C(=O)C1CC1)n2[C@H]1[C@H]2CN[C@@H]1C2` (atropisomer, axis not shown; (Ra)) [Example 116, 3-((Ra)-1-((1R,4R,5S)-2-Azabicyclo[2.1.1]hexan-5-yl)-2-((1R,5R,7R)-6-(cyclopropanecarbonyl)-4-oxo-3-oxa-6-azabicyclo[3.2.1]octan-7-yl)-7-(2,3-dichlorophenyl)-6-fluoro-4-methyl-1H-pyrrolo[3,2-c]quinolin-8-yl)propanenitrile], the “G12D_exchange” value in data set [1] is given as “†”. Moreover, the “G12V_exchange” value in data set [2] is reported as “†”. For the same compound, in data set [3], the apical-to-basolateral permeability (Papp A→B) at 120 min, 50 μM was not above 0.5 ×10⁻⁶ cm/s.
